This note sets out measurements from US11685746B2, “Heteroaryl compounds for treating Huntington's disease” (PTC THERAPEUTICS, INC., priority 2018, dated 2023).

This assay concerns Endogenous Huntingtin Protein. Description: Endogenous Huntingtin Protein Assay (MSD plates, MW1 or MAB2166 capture antibody). The format is cell-based. Particulars: Table 1. The method, boiled down: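 Sandwich MSD immunoassay: plates were coated overnight at 4° C with MW1 (expanded polyQ) or MAB2166 capture antibody at 1 μg/mL, then blocked with 5% BSA. Samples were bound overnight at 4° C, followed by rabbit mAb #5656S and SULFO-TAG anti-rabbit detection, each at 0.25 μg/mL for 1 h at room temperature. Signal was read by electrochemiluminescence.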

Bounds are passed on as bounds.

For `C[C@H]1C[C@@H](Oc2nc3sc(-c4ncc(-c5cn[nH]c5)c5cc[nH]c45)nc3s2)CCN1` [Compound 120, 7-(5-{[(2S,4S)-2-methylpiperidin-4-yl]oxy}[1,3]thiazolo[5,4-d][1,3]thiazol-2-yl)-4-(1H-pyrazol-4-yl)-1H-pyrrolo[2,3-c]pyridine], the IC50 was ≤ 100 nM. As for `CC(C)N1CCC(N(C)c2nc3sc(-c4ncc(-c5cn[nH]c5)c5cc[nH]c45)nc3s2)CC1` [Compound 121, N-methyl-N-[1-(propan-2-yl)piperidin-4-yl]-5-[4-(1H-pyrazol-4-yl)-1H-pyrrolo[2,3-c]pyridin-7-yl][1,3]thiazolo[5,4-d][1,3]thiazol-2-amine], the figure is ≤ 100 nM; as for `CCN1CCC(N(C)c2nc3sc(-c4ncc(-c5cn[nH]c5)c5cc[nH]c45)nc3s2)CC1` [Compound 122, N-(1-ethylpiperidin-4-yl)-N-methyl-5-[4-(1H-pyrazol-4-yl)-1H-pyrrolo[2,3-c]pyridin-7-yl][1,3]thiazolo[5,4-d][1,3]thiazol-2-amine], ≤ 100 nM.

With `CN(c1nc2sc(-c3ncc(-c4cn[nH]c4)c4cc[nH]c34)nc2s1)C1CCN2CCCC2C1` (centres unmarked) [Compound 123, N-methyl-N-{5-[4-(1H-pyrazol-4-yl)-1H-pyrrolo[2,3-c]pyridin-7-yl][1,3]thiazolo[5,4-d][1,3]thiazol-2-yl}octahydroindolizin-7-amine], the IC50 is ≤ 100 nM.

Take `CC1CC(N(C)c2nc3sc(-c4ncc(Br)c5cc[nH]c45)nc3s2)CCN1C` (centres unmarked) [Compound 124, 5-(4-bromo-1H-pyrrolo[2,3-c]pyridin-7-yl)-N-(1,2-dimethylpiperidin-4-yl)-N-methyl[1,3]thiazolo[5,4-d][1,3]thiazol-2-amine]: the half-inhibitory concentration (IC50) lay in the range of 100 to 500 nM. In the case of `CC1CC(N(C)c2nc3sc(-c4ccc(-c5cn[nH]c5)c5cc[nH]c45)nc3s2)CCN1C` (centres unmarked) [Compound 125, N-(1,2-dimethylpiperidin-4-yl)-N-methyl-5-[4-(1H-pyrazol-4-yl)-1H-indol-7-yl][1,3]thiazolo[5,4-d][1,3]thiazol-2-amine], the half-inhibitory concentration (IC50) is ≤ 100 nM. The molecule `CC1CC(N(C)c2nc3sc(-c4ccc(-c5cn[nH]c5)cn4)nc3s2)CCN1C` (centres unmarked) [Compound 126, N-(1,2-dimethylpiperidin-4-yl)-N-methyl-5-[5-(1H-pyrazol-4-yl)pyridin-2-yl][1,3]thiazolo[5,4-d][1,3]thiazol-2-amine] displayed a half-inhibitory concentration (IC50) of 100 to 500 nM.

Molecule `CC1CC(N(C)c2nc3sc(-c4ccc(-c5cn[nH]c5)nc4)nc3s2)CCN1C` (centres unmarked) [Compound 127, N-(1,2-dimethylpiperidin-4-yl)-N-methyl-5-[6-(1H-pyrazol-4-yl)pyridin-3-yl][1,3]thiazolo[5,4-d][1,3]thiazol-2-amine] displayed a concentration for half-maximal inhibition (IC50) of 1000 to 3000 nM. With `CN(c1nc2sc(-c3ccc(-c4cn[nH]c4)c4cc[nH]c34)nc2s1)C1CC(C)(C)NC(C)(C)C1` [Compound 128, N-methyl-5-[4-(1H-pyrazol-4-yl)-1H-indol-7-yl]-N-(2,2,6,6-tetramethylpiperidin-4-yl)[1,3]thiazolo[5,4-d][1,3]thiazol-2-amine], the IC50 was ≤ 100 nM. Regarding `CC1CC(N(C)c2nc3sc(-c4ncc(-c5cn[nH]c5)cn4)nc3s2)CCN1C` (centres unmarked) [Compound 129, N-(1,2-dimethylpiperidin-4-yl)-N-methyl-5-[5-(1H-pyrazol-4-yl)pyrimidin-2-yl][1,3]thiazolo[5,4-d][1,3]thiazol-2-amine], the IC50 was 100 to 500 nM. As to `CC1CC(N(C)c2nc3sc(-c4cnc(-c5cn[nH]c5)nc4)nc3s2)CCN1C` (centres unmarked) [Compound 130, N-(1,2-dimethylpiperidin-4-yl)-N-methyl-5-[2-(1H-pyrazol-4-yl)pyrimidin-5-yl][1,3]thiazolo[5,4-d][1,3]thiazol-2-amine], the half-inhibitory concentration (IC50) fell in the range of 1000 to 3000 nM.

The molecule `CC1CC(N(C)c2nc3sc(-n4cnc(-c5cn[nH]c5)cc4=O)nc3s2)CCN1C` (centres unmarked) [Compound 131, 3-{5-[(1,2-dimethylpiperidin-4-yl)(methyl)amino][1,3]thiazolo[5,4-d][1,3]thiazol-2-yl}-6-(1H-pyrazol-4-yl)pyrimidin-4(3H)-one] gave an IC50 of 100 to 500 nM. `CC1CC(N(C)c2nc3sc(-c4cnc(-c5cn[nH]c5)cn4)nc3s2)CCN1C` (centres unmarked) [Compound 132, N-(1,2-dimethylpiperidin-4-yl)-N-methyl-5-[5-(1H-pyrazol-4-yl)pyrazin-2-yl][1,3]thiazolo[5,4-d][1,3]thiazol-2-amine]: the 50% inhibitory concentration (IC50) was 100 to 500 nM. As to `CN(c1nc2sc(-c3ccc(-c4cn[nH]c4)cn3)nc2s1)C1CC(C)(C)NC(C)(C)C1` [Compound 133, N-methyl-5-[5-(1H-pyrazol-4-yl)pyridin-2-yl]-N-(2,2,6,6-tetramethylpiperidin-4-yl)[1,3]thiazolo[5,4-d][1,3]thiazol-2-amine], the IC50 is ≤ 100 nM. Consider `c1cc2c(-c3cn[nH]c3)cnc(-c3nc4sc(N5CCC56CCCNC6)nc4s3)c2[nH]1` (centres unmarked) [Compound 134, 7-[5-(1,6-diazaspiro[3.5]nonan-1-yl)[1,3]thiazolo[5,4-d][1,3]thiazol-2-yl]-4-(1H-pyrazol-4-yl)-1H-pyrrolo[2,3-c]pyridine], for which the concentration for half-maximal inhibition (IC50) is ≤ 100 nM.

The molecule `CN(c1nc2sc(-c3ccc(-c4cn[nH]c4)nc3)nc2s1)C1CC(C)(C)NC(C)(C)C1` [Compound 135, N-methyl-5-[6-(1H-pyrazol-4-yl)pyridin-3-yl]-N-(2,2,6,6-tetramethylpiperidin-4-yl)[1,3]thiazolo[5,4-d][1,3]thiazol-2-amine] returned a half-maximal inhibitory concentration (IC50) of 100 to 500 nM. As for `CN(c1nc2sc(-c3ncc(-c4cn[nH]c4)c4[nH]cnc34)nc2s1)C1CC(C)(C)NC(C)(C)C1` [Compound 136, N-methyl-5-[7-(1H-pyrazol-4-yl)-1H-imidazo[4,5-c]pyridin-4-yl]-N-(2,2,6,6-tetramethylpiperidin-4-yl)[1,3]thiazolo[5,4-d][1,3]thiazol-2-amine], the figure is ≤ 100 nM. With `CN(c1nc2sc(-c3cnc(-c4cn[nH]c4)nc3)nc2s1)C1CC(C)(C)NC(C)(C)C1` [Compound 137, N-methyl-5-[2-(1H-pyrazol-4-yl)pyrimidin-5-yl]-N-(2,2,6,6-tetramethylpiperidin-4-yl)[1,3]thiazolo[5,4-d][1,3]thiazol-2-amine] the figure was ≤ 100 nM; with `CN1CCC2(CC1)CN(c1nc3sc(-c4ncc(-c5cn[nH]c5)c5cc[nH]c45)nc3s1)C2` [Compound 138, 7-[5-(7-methyl-2,7-diazaspiro[3.5]nonan-2-yl)[1,3]thiazolo[5,4-d][1,3]thiazol-2-yl]-4-(1H-pyrazol-4-yl)-1H-pyrrolo[2,3-c]pyridine], ≤ 100 nM; with `CN(c1nc2sc(-c3ncc(-c4cn[nH]c4)c4cc[nH]c34)nc2s1)C1CCNCC1` [Compound 139, N-methyl-N-(piperidin-4-yl)-5-[4-(1H-pyrazol-4-yl)-1H-pyrrolo[2,3-c]pyridin-7-yl][1,3]thiazolo[5,4-d][1,3]thiazol-2-amine], ≤ 100 nM. In the case of `CN(c1nc2sc(-n3cnc(-c4cn[nH]c4)cc3=O)nc2s1)C1CC(C)(C)NC(C)(C)C1` [Compound 140, 3-{5-[methyl(2,2,6,6-tetramethylpiperidin-4-yl)amino][1,3]thiazolo[5,4-d][1,3]thiazol-2-yl}-6-(1H-pyrazol-4-yl)pyrimidin-4(3H)-one], the IC50 is ≤ 100 nM. With `CN(c1nc2sc(-c3ccc(-c4cn[nH]c4)cc3)nc2s1)[C@@H]1C[C@H]2CC[C@@H](C1)N2` [Compound 141, N-[(1R,3s,5S)-8-azabicyclo[3.2.1]octan-3-yl]-N-methyl-5-[4-(1H-pyrazol-4-yl)phenyl][1,3]thiazolo[5,4-d][1,3]thiazol-2-amine], the IC50 is ≤ 100 nM. Consider `CN(c1nc2sc(-c3cnc(-c4cn[nH]c4)cn3)nc2s1)[C@H]1C[C@]2(C)CC[C@](C)(C1)N2` [Compound 142, N-[(1R,3s,5S)-1,5-dimethyl-8-azabicyclo[3.2.1]octan-3-yl]-N-methyl-5-[5-(1H-pyrazol-4-yl)pyrazin-2-yl][1,3]thiazolo[5,4-d][1,3]thiazol-2-amine], for which the 50% inhibitory concentration (IC50) is ≤ 100 nM. On to `CC1(C)CC(Oc2nc3sc(-c4cnc(-c5cn[nH]c5)cn4)nc3s2)CC(C)(C)N1` [Compound 143, 2-[5-(1H-pyrazol-4-yl)pyrazin-2-yl]-5-[(2,2,6,6-tetramethylpiperidin-4-yl)oxy][1,3]thiazolo[5,4-d][1,3]thiazole], for which the concentration for half-maximal inhibition (IC50) is ≤ 100 nM. As to `CN(c1nc2sc(-n3cnc(-c4cn[nH]c4)cc3=O)nc2s1)[C@H]1C[C@]2(C)CC[C@](C)(C1)N2` [Compound 144, 3-(5-{[(1R,3s,5S)-1,5-dimethyl-8-azabicyclo[3.2.1]octan-3-yl](methyl)amino}[1,3]thiazolo[5,4-d][1,3]thiazol-2-yl)-6-(1H-pyrazol-4-yl)pyrimidin-4(3H)-one], the half-maximal inhibitory concentration (IC50) was ≤ 100 nM. With `CN(c1nc2sc(-c3ncc(-c4cn[nH]c4)cc3O)nc2s1)C1CCN2CCCC2C1` (centres unmarked) [Compound 145, 2-{5-[methyl(octahydroindolizin-7-yl)amino][1,3]thiazolo[5,4-d][1,3]thiazol-2-yl}-5-(1H-pyrazol-4-yl)pyridin-3-ol], the 50% inhibitory concentration (IC50) was ≤ 100 nM.

Take `CN(c1nc2sc(-n3ccc(-c4cn[nH]c4)cc3=O)nc2s1)[C@H]1C[C@]2(C)CC[C@](C)(C1)N2` [Compound 146, 1-(5-{[(1R,3s,5S)-1,5-dimethyl-8-azabicyclo[3.2.1]octan-3-yl](methyl)amino}[1,3]thiazolo[5,4-d][1,3]thiazol-2-yl)-4-(1H-pyrazol-4-yl)pyridin-2(1H)-one]: the IC50 was ≤ 100 nM. `CC(C)(C)NC1CCN(c2nc3sc(-c4ccc(-c5cn[nH]c5)cc4O)nc3s2)C1` (centres unmarked) [Compound 147, 2-{5-[3-(tert-butylamino)pyrrolidin-1-yl][1,3]thiazolo[5,4-d][1,3]thiazol-2-yl}-5-(1H-pyrazol-4-yl)phenol]: the IC50 lay in the range of 1000 to 3000 nM. As for `CN(c1nc2sc(-n3ccc(-n4cc(F)cn4)cc3=O)nc2s1)[C@H]1C[C@]2(C)CC[C@](C)(C1)N2` [Compound 148, 1-(5-{[(1R,3s,5S)-1,5-dimethyl-8-azabicyclo[3.2.1]octan-3-yl](methyl)amino}[1,3]thiazolo[5,4-d][1,3]thiazol-2-yl)-4-(4-fluoro-1H-pyrazol-1-yl)pyridin-2(1H)-one], the half-maximal inhibitory concentration (IC50) is ≤ 100 nM.
